Counter-ions that a name gives are not always drawn. Calls of active or inactive are those of the source. The calls are words filed in the database; no cut-off is given here.
Columns and labels:
Staphylococcus aureus [1] = test: Antibacterial activity against Staphylococcus aureus at 0.2 mg/ml after 24 hr by […]; assay type: functional
Staphylococcus aureus [2] = test: Antibacterial activity against Staphylococcus aureus at 0.1 mg/ml after 24 hr by […]; assay type: functional
Aspergillus fumigatus [3] = test: Antifungal activity against Aspergillus fumigatus at 0.2 mg/ml after 24 hr by […]; assay type: functional
Candida albicans = test: Antifungal activity against Candida albicans at 0.1 to 1 mg/ml after 24 hr by […]; assay type: functional, organism-based
Aspergillus fumigatus [4] = test: Antifungal activity against Aspergillus fumigatus at 0.1 mg/ml after 24 hr by […]; assay type: functional, organism-based
Bacillus subtilis [5] = test: Antibacterial activity against Bacillus subtilis at 0.1 mg/ml after 24 hr by […]; assay type: functional; conditions: for zone of inhibition at 100 µg/mL: read-out: DIZ
Aspergillus fumigatus [6] = test: Antifungal activity against Aspergillus fumigatus at 1 mg/ml after 24 hr by […]; assay type: functional; conditions: for zone of inhibition at 1000 µg/mL: read-out: DIZ
Bacillus subtilis [7] = test: Antibacterial activity against Bacillus subtilis at 1 mg/ml after 24 hr by […]; assay type: functional; conditions: read-out: DIZ
Staphylococcus aureus [8] = test: Antibacterial activity against Staphylococcus aureus at 1 mg/ml after 24 hr by […]; assay type: functional; conditions: for zone of inhibition at 1000 µg/mL: read-out: DIZ
Bacillus subtilis [9] = test: Antibacterial activity against Bacillus subtilis at 0.2 mg/ml after 24 hr by […]; assay type: functional; conditions: read-out: DIZ

| Structure (SMILES) | zone of inhibition at 200 µg/mL (Staphylococcus aureus [1]; read-out: DIZ) [mm] | zone of inhibition at 100 µg/mL (Staphylococcus aureus [2]; read-out: DIZ) [mm] | diameter of the inhibition zone (DIZ) (Aspergillus fumigatus [3]) | diameter of the inhibition zone (DIZ) (Candida albicans) | diameter of the inhibition zone (DIZ) (Aspergillus fumigatus [4]) | zone of inhibition at 100 µg/mL (Bacillus subtilis [5]) [mm] | diameter of the inhibition zone (DIZ) (Aspergillus fumigatus [6]) | zone of inhibition at 1000 µg/mL (Bacillus subtilis [7]) [mm] | zone of inhibition at 1000 µg/mL (Staphylococcus aureus [8]) [mm] | zone of inhibition at 200 µg/mL (Bacillus subtilis [9]) [mm] | diameter of the inhibition zone (DIZ) (Staphylococcus aureus [1]) | diameter of the inhibition zone (DIZ) (Staphylococcus aureus [2]) | zone of inhibition at 1000 µg/mL (Aspergillus fumigatus [6]) [mm] | diameter of the inhibition zone (DIZ) (Bacillus subtilis [5]) | diameter of the inhibition zone (DIZ) (Staphylococcus aureus [8]) | zone of inhibition at 200 µg/mL (Aspergillus fumigatus [3]; read-out: DIZ) [mm] |
| --- | --- | --- | --- | --- | --- | --- | --- | --- | --- | --- | --- | --- | --- | --- | --- | --- |
| C[C@H]1COc2c(N3CCN(C)CC3)c(F)cc3c(=O)c(C(=O)O)cn1c23 [LEVOFLOXACIN HYDROCHLORIDE] | 2.9 | 2.6 | inactive | inactive | inactive | 3.6 | inactive | 4.6 | 3.3 | 3.8 | – | – | – | – | – | – |
| CCC(C)C(C(=O)O)n1cc(C(=O)O)c(=O)c2cc(F)c(N3CCN(C)CC3)c(F)c21 (stereo not given) | – | – | inactive | inactive | inactive | 0.6 | inactive | 1.2 | 0.6 | 1.15 | inactive | inactive | – | – | – | – |
| CN1CCN(c2c(F)cc3c(=O)c(C(=O)O)cn(C(C(=O)O)c4ccccc4)c3c2F)CC1 (stereo not given) | – | – | inactive | inactive | inactive | 0.6 | – | 1.05 | 0.6 | 0.9 | inactive | inactive | 0.6 | – | – | – |
| CC(C)C(C(=O)O)n1cc(C(=O)O)c(=O)c2cc(F)c(N3CCN(C)CC3)c(F)c21 (stereo not given) | – | – | inactive | inactive | inactive | – | inactive | 1 | – | 0.7 | inactive | inactive | – | inactive | inactive | – |
| CN1CCN(c2c(F)cc3c(=O)c(C(=O)O)cn(C(Cc4ccccc4)C(=O)O)c3c2F)CC1 (stereo not given) | – | – | inactive | inactive | inactive | – | – | 1.2 | 0.8 | 0.95 | inactive | inactive | 0.75 | inactive | – | – |
| CN1CCN(c2c(F)cc3c(=O)c(C(=O)O)cn(CC(=O)O)c3c2F)CC1 | – | – | – | inactive | inactive | 0.65 | – | 1.1 | 0.7 | 0.9 | inactive | inactive | 1 | – | – | 0.6 |
| CC(C)CC(C(=O)O)n1cc(C(=O)O)c(=O)c2cc(F)c(N3CCN(C)CC3)c(F)c21 (stereo not given) | – | – | inactive | inactive | inactive | – | inactive | 1.15 | 0.6 | 0.95 | inactive | inactive | – | inactive | – | – |

From ChEMBL document CHEMBL3046283, “The simple synthesis and antimicrobial activity of novel fluoroquinolone derivatives from natural amino acid salts” (2012)
